Legend:
Format in all cases: functional
[1] = Growth inhibition of human Hs 578T cells at 10 uM after 48 hrs by sulforhodamine B assay; conditions: values are per cent of control
[2] = Growth inhibition of human OVCAR4 cells at 10 uM after 48 hrs by sulforhodamine B assay; conditions: OVCAR-4, 48 h, values are per cent of control
A498 = test: Growth inhibition of human A498 cells at 10 uM after 48 hrs by sulforhodamine B assay; conditions: A498, 48 h, values are per cent of control
A549 = test: Growth inhibition of human A549/ATCC cells at 10 uM after 48 hrs by sulforhodamine B assay; conditions: A549, 48 h, values are per cent of control
[3] = Growth inhibition of human DU145 cells at 10 uM after 48 hrs by sulforhodamine B assay; conditions: DU-145, 48 h, values are per cent of control
NCI-H460 = test: Growth inhibition of human NCI-H460 cells at 10 uM after 48 hrs by sulforhodamine B assay; conditions: NCI-H460, 48 h, values are per cent of control
SN12C = test: Growth inhibition of human SN12C cells at 10 uM after 48 hrs by sulforhodamine B assay; conditions: values are per cent of control
NCI-H226 = test: Growth inhibition of human NCI-H226 cells at 10 uM after 48 hrs by sulforhodamine B assay; conditions: NCI-H226, 48 h, values are per cent of control
[4] = Growth inhibition of human SF295 cells at 10 uM after 48 hrs by sulforhodamine B assay; conditions: SF-295, 48 h, values are per cent of control
[5] = Growth inhibition of human UO31 cells at 10 uM after 48 hrs by sulforhodamine B assay; conditions: UO-31, 48 h, values are per cent of control
[6] = Growth inhibition of human OVCAR5 cells at 10 uM after 48 hrs by sulforhodamine B assay; conditions: OVCAR-5, 48 h, values are per cent of control
K562 = test: Growth inhibition of human K562 cells at 10 uM after 48 hrs by sulforhodamine B assay; conditions: K562, 48 h, values are per cent of control
SK-MEL-2 = test: Growth inhibition of human SK-MEL-2 cells at 10 uM after 48 hrs by sulforhodamine B assay; conditions: SK-MEL-2, 48 h, values are per cent of control
MDA-MB-435 = test: Growth inhibition of human MDA-MB-435 cells at 10 uM after 48 hrs by sulforhodamine B assay; conditions: MDA-MB-435, 48 h, values are per cent of control
[7] = Growth inhibition of human HCT15 cells at 10 uM after 48 hrs by sulforhodamine B assay; conditions: HCT-15, 48 h, values are per cent of control
786-0 = test: Growth inhibition of human 786-0 cells at 10 uM after 48 hrs by sulforhodamine B assay; conditions: 786-0, 48 h, values are per cent of control
SR = test: Growth inhibition of human SR cells at 10 uM after 48 hrs by sulforhodamine B assay; conditions: values are per cent of control
[8] = Growth inhibition of human IGROV1 cells at 10 uM after 48 hrs by sulforhodamine B assay; conditions: IGROV-1, 48 h, values are per cent of control
NCI-H23 = test: Growth inhibition of human NCI-H23 cells at 10 uM after 48 hrs by sulforhodamine B assay; conditions: NCI-H23, 48 h, values are per cent of control
[9] = Growth inhibition of human HCT116 cells at 10 uM after 48 hrs by sulforhodamine B assay; conditions: HCT-116, 48 h, values are per cent of control
[10] = Growth inhibition of human HOP62 cells at 10 uM after 48 hrs by sulforhodamine B assay; conditions: HOP-62, 48 h, values are per cent of control
SK-MEL-28 = test: Growth inhibition of human SK-MEL-28 cells at 10 uM after 48 hrs by sulforhodamine B assay; conditions: SK-MEL-28, 48 h, values are per cent of control
[11] = Growth inhibition of human UACC62 cells at 10 uM after 48 hrs by sulforhodamine B assay; conditions: UACC-62, 48 h, values are per cent of control
SK-MEL-5 = test: Growth inhibition of human SK-MEL-5 cells at 10 uM after 48 hrs by sulforhodamine B assay; conditions: SK-MEL-5, 48 h, values are per cent of control
ACHN = test: Growth inhibition of human ACHN cells at 10 uM after 48 hrs by sulforhodamine B assay; conditions: values are per cent of control
[12] = Growth inhibition of human SNB19 cells at 10 uM after 48 hrs by sulforhodamine B assay; conditions: SNB-19, 48 h, values are per cent of control
NCI-H322M = test: Growth inhibition of human NCI-H322M cells at 10 uM after 48 hrs by sulforhodamine B assay; conditions: values are per cent of control
[13] = Growth inhibition of human BT549 cells at 10 uM after 48 hrs by sulforhodamine B assay; conditions: BT-549, 48 h, values are per cent of control
[14] = Growth inhibition of human LOXIMVI cells at 10 uM after 48 hrs by sulforhodamine B assay; conditions: LOX IMVI, values are per cent of control
[15] = Growth inhibition of human COLO205 cells at 10 uM after 48 hrs by sulforhodamine B assay; conditions: COLO 205, 48 h, values are per cent of control
[16] = Growth inhibition of human SW620 cells at 10 uM after 48 hrs by sulforhodamine B assay; conditions: SW-620, 48 h, values are per cent of control
[17] = Growth inhibition of human RXF393 cells at 10 uM after 48 hrs by sulforhodamine B assay; conditions: RXF 393, 48 h, values are per cent of control
MDA-MB-231 = test: Growth inhibition of human MDA-MB-231 cells at 10 uM after 48 hrs by sulforhodamine B assay; conditions: MDA-MB-231, 48 h, values are per cent of control
[18] = Growth inhibition of human Caki1 cells at 10 uM after 48 hrs by sulforhodamine B assay; conditions: CAKI-1, 48 h, values are per cent of control
M14 = test: Growth inhibition of human M14 cells at 10 uM after 48 hrs by sulforhodamine B assay; conditions: M14, 48 h, values are per cent of control
[19] = Growth inhibition of human SF539 cells at 10 uM after 48 hrs by sulforhodamine B assay; conditions: SF-539, 48 h, values are per cent of control
[20] = Growth inhibition of human OVCAR8 cells at 10 uM after 48 hrs by sulforhodamine B assay; conditions: OVCAR-8, 48 h, values are per cent of control
HT-29 = test: Growth inhibition of human HT-29 cells at 10 uM after 48 hrs by sulforhodamine B assay; conditions: HT-29, 48 h, values are per cent of control
KM12 = test: Growth inhibition of human KM12 cells at 10 uM after 48 hrs by sulforhodamine B assay; conditions: KM12, 48 h, values are per cent of control
[21] = Growth inhibition of human SNB75 cells at 10 uM after 48 hrs by sulforhodamine B assay; conditions: SNB-75, 48 h, values are per cent of control

SMILES | growth, % of control at 10 µM [1] [%] | growth, % of control at 10 µM [2] [%] | growth, % of control at 10 µM (A498) [%] | growth, % of control at 10 µM (A549) [%] | growth, % of control at 10 µM [3] [%] | growth, % of control at 10 µM (NCI-H460) [%] | growth, % of control at 10 µM (SN12C) [%] | growth, % of control at 10 µM (NCI-H226) [%] | growth, % of control at 10 µM [4] [%] | growth, % of control at 10 µM [5] [%] | growth, % of control at 10 µM [6] [%] | growth, % of control at 10 µM (K562) [%] | growth, % of control at 10 µM (SK-MEL-2) [%] | growth, % of control at 10 µM (MDA-MB-435) [%] | growth, % of control at 10 µM [7] [%] | growth, % of control at 10 µM (786-0) [%] | growth, % of control at 10 µM (SR) [%] | growth, % of control at 10 µM [8] [%] | growth, % of control at 10 µM (NCI-H23) [%] | growth, % of control at 10 µM [9] [%] | further results
N#C/C(=C\c1cc(Br)cc(Br)c1)c1ccc2c(c1)OCO2 | 112 | 81.3 | 90.4 | 79.9 | 94.2 | 99.4 | 94.7 | 115 | 96.4 | 76.5 | 100 | 96.2 | 88.7 | 98.7 | 92.6 | 98.2 | 79 | 85.1 | 91.5 | 82.1 | growth, % of control at 10 µM [10]: 104%; growth, % of control at 10 µM (SK-MEL-28): 98.9%; growth, % of control at 10 µM [11]: 85.4%; growth, % of control at 10 µM (SK-MEL-5): 95.4%; growth, % of control at 10 µM (ACHN): 96.1%; growth, % of control at 10 µM [12]: 109%; growth, % of control at 10 µM (NCI-H322M): 91.4%; growth, % of control at 10 µM [13]: 91.4%; growth, % of control at 10 µM [14]: 97.1%; growth, % of control at 10 µM [15]: 106%; growth, % of control at 10 µM [16]: 101%; growth, % of control at 10 µM [17]: 95.5%; growth, % of control at 10 µM (MDA-MB-231): 89.9%; growth, % of control at 10 µM [18]: 88.1%; growth, % of control at 10 µM (M14): 92.8%; growth, % of control at 10 µM [19]: 94.4%; growth, % of control at 10 µM [20]: 108%; growth, % of control at 10 µM (HT-29): 91.1%; growth, % of control at 10 µM (KM12): 92.4%; growth, % of control at 10 µM [21]: 77.3%
N#C/C(=C\c1ccc(Cl)cc1Cl)c1ccc2c(c1)OCO2 | 135 | 88.7 | 101 | 92.3 | 99.3 | 103 | 102 | 113 | 97.5 | 75.1 | 106 | 76.2 | 98.9 | 50.7 | 82.9 | 91.4 | 68.7 | 97.9 | 96.3 | 99.5 | growth, % of control at 10 µM [10]: 88%; growth, % of control at 10 µM (SK-MEL-28): 98.3%; growth, % of control at 10 µM [11]: 81.9%; growth, % of control at 10 µM (SK-MEL-5): 98.9%; growth, % of control at 10 µM (ACHN): 102%; growth, % of control at 10 µM [12]: 99.8%; growth, % of control at 10 µM (NCI-H322M): 86.4%; growth, % of control at 10 µM [13]: 86.4%; growth, % of control at 10 µM [14]: 103%; growth, % of control at 10 µM [15]: 99%; growth, % of control at 10 µM [16]: 106%; growth, % of control at 10 µM [17]: 101%; growth, % of control at 10 µM (MDA-MB-231): 119%; growth, % of control at 10 µM [18]: 86.9%; growth, % of control at 10 µM (M14): 88.7%; growth, % of control at 10 µM [19]: 93.8%; growth, % of control at 10 µM [20]: 104%; growth, % of control at 10 µM (HT-29): 89.7%; growth, % of control at 10 µM (KM12): 76%; growth, % of control at 10 µM [21]: 76.2%
